Measurements from patent publication US4570005A, “Process for the preparation of 2-arylpropyl ether or thioether derivatives” (priority 1980, dated 1986).
Read-outs that look alike come from different tables or passages of the source.

Legend:
[1] = system: resistant green rice leafhopper (collected at Nakagawara); experiment: Test 3: Effect on Resistant Green Rice Leafhopper (collected at Nakagawara); format: in vivo, Nephotettix cincticeps Uhler (Green rice leafhopper); conditions: Nephotettix cincticeps, 24 h, read-out: Mortality (%), Green Rice Leafhopper Collected at Nakagawara
Method: (§1) To a mixture of 20 parts of the compound of the present invention and 20 parts of Sorpol SM-200 (registered tradename for the product supplied by Toho Chemical Industrial Co., Ltd.) was added 60 parts of xylol, and the mixture was suffciently blended. The obtained emulsifiable concentrate was diluted at a predetermined concentration with distilled water, and the obtained dilution was used.
(§2) Seedlings (having 2 to 3 leaves) of paddy rice were hydroponically cultured in a pot having a diameter of 5 cm. A chemical dilution having a concentration of 100 or 20 ppm, prepared in the same manner as described in Test 1, was applied with a sprayer at a rate of 3 ml per pot. The treated seedlings were air-dried and covered with a metal net cylinder, and female adults of resistant green rice leafhopper (collected at Nakagawara) and sensitive green rice leafhopper (collected at Chigasaki) were set, respectively, free in the pot at a density of 10 adults per pot. After 24 hours, the numbers of killed and living adults were counted and the mortality was calculated. The test was made on three pots and the average value was calculated.

[2] = system: sensitive green rice leafhopper (collected at Chigasaki); experiment: whole plant or invertebrate; format: in vivo; conditions: Nephotettix cincticeps, read-out: Mortality (%), Green Rice Leafhopper Collected at Chigasaki
Method: as §1, §2

[3] = Test 9: Toxicity Test (acute oral toxicity, mice); conditions: mouse, in vivo, po
Method: A predetermined amount of a solution or suspension of a test compound in corn oil was orally administered to male mice having a body weight of 19 to 23 g (0.2 ml per 10 g of the body weight). After 7 days, the number of killed mice was counted and the influences on the mice were examined.

[4] = sensitive female adults, 24 hours
[5] = 100 ppm, sensitive female adults, 24 hours

| SMILES | mortality at 20 ppm [1] | mortality at 100 ppm [1] | mortality at 20 ppm [2, 4] | mortality at 100 ppm [2, 5] | LD50 at 168 h [3] | mortality at 100 ppm ([2]; 24 h) |
| --- | --- | --- | --- | --- | --- | --- |
| CC(C)(COCc1cccc(Oc2ccccc2)c1)c1ccc(-c2ccccc2)cc1 [Compound 68, 3-Phenoxybenzyl 2-(4-biphenyl)-2-methylpropyl ether] | 100% | 100% | 100% | 100% | > 500 mg/kg | – |
| CC=C(C)c1ccc(C(C)(C)COCc2cccc(Oc3ccccc3)c2)cc1 [Compound 111, 3-Phenoxybenzyl 2-[4-(2-buten-2-yl)phenyl]-2-methylpropyl ether] | – | – | – | – | > 500 mg/kg | – |
| CC(C)=Cc1ccc(C(C)(C)COCc2cccc(Oc3ccccc3)c2)cc1 [Compound 91, 3-Phenoxybenzyl 2-[4-(2-methyl-1-propenyl)phenyl]-2-methylpropyl ether] | 100% | 100% | 100% | 100% | > 500 mg/kg | – |
| Cc1cccc(C(C)(C)COCc2cccc(Oc3ccc(F)cc3)c2)c1 [Compound 36, 3-(4-Fluorophenoxy)benzyl 2-(3-methylphenyl)-2-methylpropyl ether] | 90% | 100% | 70% | 95% | > 500 mg/kg | – |
| CC(C)c1ccc(C(C)(C)COCc2cccc(Oc3ccccc3)c2)cc1 [Compound 63, 3-Phenoxybenzyl 2-(4-isopropylphenyl)-2-methylpropyl ether] | 100% | 100% | 95% | 100% | > 500 mg/kg | – |
| COc1ccc(Oc2cccc(COCC(C)(C)c3ccc(Br)cc3)c2)cc1 [Compound 40, 3-(4-Methoxyphenoxy)benzyl 2-(4-bromophenyl)-2-methylpropyl ether] | 70% | 100% | 50% | 100% | > 500 mg/kg | – |
| CNC(=O)Oc1cccc(C)c1 [Comparative Compound (e), m-tolyl-N-methylcarbamate, reference compound] | – | – | – | – | 220 mg/kg | 80% |
| COCc1ccc(C(C)(C)COCc2cccc(Oc3ccccc3)c2)cc1 [Compound 80, 3-Phenoxybenzyl 2-(4-methoxymethylphenyl)-2-methylpropyl ether] | – | – | – | – | > 500 mg/kg | – |
| COc1ccc(Oc2cccc(COCC(C)(C)c3ccc(OC)cc3)c2)cc1 [Compound 27, 3-(4-Methoxyphenoxy)benzyl 2-(4-methoxyphenyl)-2-methylpropyl ether] | 70% | 100% | 50% | 100% | > 500 mg/kg | – |
| COc1ccc(C(C)(C)COCc2cccc(Oc3ccccc3)c2)cc1OC [Compound 88, 3-Phenoxybenzyl 2-(3,4-dimethoxyphenyl)-2-methylpropyl ether] | 80% | 100% | 60% | 100% | > 500 mg/kg | – |
| C=C(CC)c1ccc(C(C)(C)COCc2cccc(Oc3ccccc3)c2)cc1 [Compound 110, 3-Phenoxybenzyl 2-[4-(1-buten-2-yl)phenyl]-2-methylpropyl ether] | – | – | – | – | > 500 mg/kg | – |
| C=C(Cl)c1ccc(C(C)(C)COCc2cccc(Oc3ccccc3)c2)cc1 [Compound 102, 3-Phenoxybenzyl 2-[4-(1-chlorovinyl)phenyl]-2-methylpropyl ether] | – | – | – | – | > 500 mg/kg | – |
| CCOCCOc1ccc(C(C)(C)COCc2cccc(Oc3ccccc3)c2)cc1 [Compound 89, 3-Phenoxybenzyl 2-[4-(2-ethoxyethoxy)phenyl]-2-methylpropyl ether] | – | – | – | – | > 500 mg/kg | – |
| COc1ccc(Oc2cccc(COCC(C)(C)c3ccc(C)cc3)c2)cc1 [Compound 44, 3-(4-methoxyphenoxy)benzyl 2-(4-methylphenyl)-2-methylpropylether] | 95% | 100% | 80% | 100% | > 500 mg/kg | – |
| CC(C)(COCc1cccc(Oc2ccc(F)cc2)c1)c1ccccc1 [Compound 28, 3-(4-Fluorophenoxy)benzyl 2-phenyl-2-methylpropyl ether] | 90% | 100% | 75% | 100% | > 500 mg/kg | – |
| CC(C)(COCc1cccc(Oc2ccc(Br)cc2)c1)c1cccc(C(F)(F)F)c1 [Compound 42, 3-(4-Bromophenoxy)benzyl 2-(3-trifluoromethylphenyl)-2-methylpropyl ether] | 100% | 100% | 95% | 100% | > 500 mg/kg | – |
| COc1ccc(Oc2cccc(COCC(C)(C)c3ccc(Cl)cc3)c2)cc1 [Compound 34, 3-(4-Methoxyphenoxy)benzyl 2-(4-chlorophenyl)-2-methylpropyl ether] | 100% | 100% | 90% | 100% | > 500 mg/kg | – |
| CC(C)(COCc1cccc(Oc2cccc(Cl)c2)c1)c1ccc(Cl)cc1 [Compound 10, 3-(3-Chlorophenoxy)benzyl 2-(4-chlorophenyl)-2-methylpropyl ether] | 100% | 100% | 100% | 100% | > 500 mg/kg | – |
| CC(C)(COCc1cccc(Oc2ccccc2)c1)c1ccc(OC2CCCCC2)cc1 [Compound 72, 3-Phenoxybenzyl 2-(4-cyclohexyloxyphenyl)-2-methylpropyl ether] | 80% | 100% | 65% | 100% | > 500 mg/kg | – |
| CC(C)c1ccc(C(C)(C)COCc2cccc(Oc3ccc(F)cc3)c2)cc1 [Compound 77, 3-(4-Fluorophenoxy)benzyl 2-(4-isopropylphenyl)-2-methylpropyl ether] | 85% | 100% | 70% | 100% | > 500 mg/kg | – |
| COc1ccc(C(C)(C)COCc2cccc(Oc3ccc(F)cc3)c2)cc1 [Compound 32, 3-(4-Fluorophenoxy)benzyl 2-(4-methoxyphenyl)-2-methylpropyl ether] | 100% | 100% | 100% | 100% | > 500 mg/kg | – |
| C=C(C)c1ccc(C(C)(C)COCc2cccc(Oc3ccccc3)c2)cc1 [Compound 87, 3-Phenoxybenzyl 2-(4-isopropenylphenyl)-2-methylpropyl ether] | – | – | – | – | > 500 mg/kg | – |
| CC(C)(COCc1cccc(Oc2ccccc2)c1)c1ccc(C(=O)OCC(F)(F)F)cc1 [Compound 106, 3-Phenoxybenzyl 2-[4-(2,2,2-trifluoroethoxycarbonyl)-phenyl]-2-methylpropylether] | – | – | – | – | > 500 mg/kg | – |
| Cc1cccc(Oc2cccc(COCC(C)(C)c3ccc(Cl)cc3)c2)c1 [Compound 26, 3-(3-Methylphenoxy)benzyl 2-(4-chlorophenyl)-2-methylpropyl ether] | 85% | 100% | 60% | 100% | > 500 mg/kg | – |
